Results as given in the NIST ThermoML archive (doi:10.1016/j.jct.2012.05.003).
Numbers after ± are expanded uncertainties.

Settings: for molar entropy: Vacuum adiabatic calorimetry

In the case of `O=C1c2ccccc2-c2ccccc21` [9(9H)-fluorenone], the molar entropy (5 K, 101.33 kPa, Crystal) is reported as 0.2 ± 0.017 J/K/mol, the molar entropy (10 K, 101.33 kPa, Crystal) is reported as 1.47 ± 0.025 J/K/mol and the molar entropy (20 K, 101.33 kPa, Crystal) is reported as 7.81 ± 0.083 J/K/mol. It also gave a molar entropy (30 K, 101.33 kPa, Crystal) of 16.59 ± 0.083 J/K/mol, a molar entropy (40 K, 101.33 kPa, Crystal) of 26.02 ± 0.11 J/K/mol and a molar entropy (50 K, 101.33 kPa, Crystal) of 35.44 ± 0.13 J/K/mol. The molar entropy (60 K, 101.33 kPa, Crystal) was 44.68 ± 0.16 J/K/mol, the molar entropy (70 K, 101.33 kPa, Crystal) was 53.57 ± 0.17 J/K/mol and the molar entropy (80 K, 101.33 kPa, Crystal) was 62.15 ± 0.2 J/K/mol. The molar entropy (90 K, 101.33 kPa, Crystal) was 70.45 ± 0.32 J/K/mol, the molar entropy (100 K, 101.33 kPa, Crystal) was 78.48 ± 0.32 J/K/mol and the molar entropy (120 K, 101.33 kPa, Crystal) was 93.91 ± 0.34 J/K/mol. The molar entropy (140 K, 101.33 kPa, Crystal) was 108.7 ± 0.37 J/K/mol, the molar entropy (160 K, 101.33 kPa, Crystal) was 123.08 ± 0.39 J/K/mol and the molar entropy (180 K, 101.33 kPa, Crystal) was 137.18 ± 0.42 J/K/mol. It also gave a molar entropy (200 K, 101.33 kPa, Crystal) of 151.1 ± 0.43 J/K/mol, a molar entropy (220 K, 101.33 kPa, Crystal) of 164.93 ± 0.46 J/K/mol and a molar entropy (240 K, 101.33 kPa, Crystal) of 178.73 ± 0.48 J/K/mol. It also gave a molar entropy (260 K, 101.33 kPa, Crystal) of 192.51 ± 0.51 J/K/mol, a molar entropy (280 K, 101.33 kPa, Crystal) of 206.3 ± 0.53 J/K/mol and a molar entropy (298.15 K, 101.33 kPa, Crystal) of 218.82 ± 0.55 J/K/mol. It also gave a molar entropy (300 K, 101.33 kPa, Crystal) of 220.1 ± 0.56 J/K/mol, a molar entropy (320 K, 101.33 kPa, Crystal) of 233.91 ± 0.58 J/K/mol and a molar entropy (340 K, 101.33 kPa, Crystal) of 247.73 ± 0.61 J/K/mol. It also gave a molar entropy (340 K, 101.33 kPa, Liquid) of 291.47 ± 0.68 J/K/mol, a molar entropy (356.52 K, 101.33 kPa, Crystal) of 259.19 ± 0.62 J/K/mol and a molar entropy (356.52 K, 101.33 kPa, Liquid) of 305.07 ± 0.71 J/K/mol. For the same compound, the molar entropy (360 K, 101.33 kPa, Liquid) was 307.89 ± 0.71 J/K/mol, the “vapor or sublimation pressure” value (368.12 K, Liquid, Inclined piston gauge) was 0.0161 ± 0.0008 kPa and the mass density (373 K, 101.33 kPa, Liquid, Pycnometric method) was 1090 ± 10 kg/m3. The “vapor or sublimation pressure” value (378.12 K, Liquid, Inclined piston gauge) was 0.0308 ± 0.0008 kPa, the molar entropy (380 K, 101.33 kPa, Liquid) was 323.92 ± 0.74 J/K/mol and the “vapor or sublimation pressure” value (388.12 K, Liquid, Inclined piston gauge) was 0.0562 ± 0.0009 kPa. The “vapor or sublimation pressure” value (398.12 K, Liquid, Inclined piston gauge) was 0.0987 ± 0.0009 kPa, the molar entropy (400 K, 101.33 kPa, Liquid) was 339.6 ± 0.76 J/K/mol and the “vapor or sublimation pressure” value (408.12 K, Liquid, Inclined piston gauge) was 0.1672 ± 0.0009 kPa. The “vapor or sublimation pressure” value (418.12 K, Liquid, Inclined piston gauge) was 0.2744 ± 0.001 kPa, the molar entropy (420 K, 101.33 kPa, Liquid) was 354.94 ± 0.79 J/K/mol and the “vapor or sublimation pressure” value (428.11 K, Liquid, Inclined piston gauge) was 0.4382 ± 0.0013 kPa. The “vapor or sublimation pressure” value (438.11 K, Liquid, Inclined piston gauge) was 0.6825 ± 0.0015 kPa, the molar entropy (440 K, 101.33 kPa, Liquid) was 369.98 ± 0.82 J/K/mol and the “vapor or sublimation pressure” value (448.11 K, Liquid, Inclined piston gauge) was 1.038 ± 0.0019 kPa. For the same compound, the “vapor or sublimation pressure” value (458.11 K, Liquid, Inclined piston gauge) was 1.544 ± 0.0023 kPa, the molar entropy (460 K, 101.33 kPa, Liquid) was 384.73 ± 0.85 J/K/mol and the “vapor or sublimation pressure” value (464.96 K, Liquid, Twin ebulliometer) was 2 ± 0.008 kPa. The “vapor or sublimation pressure” value (468.11 K, Liquid, Inclined piston gauge) was 2.25 ± 0.003 kPa, the “vapor or sublimation pressure” value (472.82 K, Liquid, Twin ebulliometer) was 2.666 ± 0.0082 kPa and the “vapor or sublimation pressure” value (478.11 K, Liquid, Inclined piston gauge) was 3.216 ± 0.0039 kPa. For the same compound, the molar entropy (480 K, 101.33 kPa, Liquid) was 399.2 ± 0.87 J/K/mol, the “vapor or sublimation pressure” value (483.11 K, Liquid, Inclined piston gauge) was 3.821 ± 0.0045 kPa and the “vapor or sublimation pressure” value (493.2 K, Liquid, Twin ebulliometer) was 5.333 ± 0.0086 kPa. The molar entropy (500 K, 101.33 kPa, Liquid) was 413.42 ± 0.9 J/K/mol, the “vapor or sublimation pressure” value (506.16 K, Liquid, Twin ebulliometer) was 7.999 ± 0.0093 kPa and the “vapor or sublimation pressure” value (515.86 K, Liquid, Twin ebulliometer) was 10.67 ± 0.01 kPa. The molar entropy (520 K, 101.33 kPa, Liquid) was 427.39 ± 0.92 J/K/mol, the “vapor or sublimation pressure” value (523.7 K, Liquid, Twin ebulliometer) was 13.33 ± 0.011 kPa and the “vapor or sublimation pressure” value (531.86 K, Liquid, Twin ebulliometer) was 16.66 ± 0.012 kPa. For the same compound, the “vapor or sublimation pressure” value (538.62 K, Liquid, Twin ebulliometer) was 19.93 ± 0.014 kPa, the “vapor or sublimation pressure” value (547.52 K, Liquid, Twin ebulliometer) was 25.02 ± 0.016 kPa and the “vapor or sublimation pressure” value (547.53 K, Liquid, Twin ebulliometer) was 25.02 ± 0.015 kPa. For the same compound, the “vapor or sublimation pressure” value (556.48 K, Liquid, Twin ebulliometer) was 31.17 ± 0.018 kPa, the “vapor or sublimation pressure” value (565.49 K, Liquid, Twin ebulliometer) was 38.56 ± 0.021 kPa and the “vapor or sublimation pressure” value (574.56 K, Liquid, Twin ebulliometer) was 47.37 ± 0.025 kPa. The “vapor or sublimation pressure” value (583.67 K, Liquid, Twin ebulliometer) was 57.81 ± 0.028 kPa, the “vapor or sublimation pressure” value (592.85 K, Liquid, Twin ebulliometer) was 70.11 ± 0.033 kPa and the “vapor or sublimation pressure” value (602.07 K, Liquid, Twin ebulliometer) was 84.53 ± 0.038 kPa. For the same compound, the “vapor or sublimation pressure” value (611.34 K, Liquid, Twin ebulliometer) was 101.32 ± 0.05 kPa, the “vapor or sublimation pressure” value (620.67 K, Liquid, Twin ebulliometer) was 120.78 ± 0.05 kPa and the “vapor or sublimation pressure” value (630.05 K, Liquid, Twin ebulliometer) was 143.23 ± 0.06 kPa. The “vapor or sublimation pressure” value (639.47 K, Liquid, Twin ebulliometer) was 169 ± 0.07 kPa, the “vapor or sublimation pressure” value (648.95 K, Liquid, Twin ebulliometer) was 198.46 ± 0.07 kPa and the “vapor or sublimation pressure” value (658.48 K, Liquid, Twin ebulliometer) was 231.99 ± 0.08 kPa. For the same compound, the “vapor or sublimation pressure” value (668.07 K, Liquid, Twin ebulliometer) was 269.98 ± 0.09 kPa and the Triple point temperature (Crystal, Adiabatic calorimetry) was 356.52 ± 0.039 K.
